# Experimental data taken from patent US11447466B2, “Substituted indole compounds useful as inhibitors of TLR7/8/9” (BRISTOL-MYERS SQUIBB COMPANY, priority 2017, dated 2022).
# Key:
# Format in all cases: cell-based
# [1] = molecular target: T1, human TLR7 (Homo sapiens, UniProt Q9NYK1); test: TLR7 inhibition reporter assay (HEK-Blue SEAP reporter, gardiquimod stimulation); settings: HEK-Blue cells overexpressing human TLR7, SEAP reporter, gardiquimod 7.5 μM, 22 hour incubation
# T1 construct: host or cells: HEK-Blue cells
# T1 sequence (Q9NYK1 27-1049): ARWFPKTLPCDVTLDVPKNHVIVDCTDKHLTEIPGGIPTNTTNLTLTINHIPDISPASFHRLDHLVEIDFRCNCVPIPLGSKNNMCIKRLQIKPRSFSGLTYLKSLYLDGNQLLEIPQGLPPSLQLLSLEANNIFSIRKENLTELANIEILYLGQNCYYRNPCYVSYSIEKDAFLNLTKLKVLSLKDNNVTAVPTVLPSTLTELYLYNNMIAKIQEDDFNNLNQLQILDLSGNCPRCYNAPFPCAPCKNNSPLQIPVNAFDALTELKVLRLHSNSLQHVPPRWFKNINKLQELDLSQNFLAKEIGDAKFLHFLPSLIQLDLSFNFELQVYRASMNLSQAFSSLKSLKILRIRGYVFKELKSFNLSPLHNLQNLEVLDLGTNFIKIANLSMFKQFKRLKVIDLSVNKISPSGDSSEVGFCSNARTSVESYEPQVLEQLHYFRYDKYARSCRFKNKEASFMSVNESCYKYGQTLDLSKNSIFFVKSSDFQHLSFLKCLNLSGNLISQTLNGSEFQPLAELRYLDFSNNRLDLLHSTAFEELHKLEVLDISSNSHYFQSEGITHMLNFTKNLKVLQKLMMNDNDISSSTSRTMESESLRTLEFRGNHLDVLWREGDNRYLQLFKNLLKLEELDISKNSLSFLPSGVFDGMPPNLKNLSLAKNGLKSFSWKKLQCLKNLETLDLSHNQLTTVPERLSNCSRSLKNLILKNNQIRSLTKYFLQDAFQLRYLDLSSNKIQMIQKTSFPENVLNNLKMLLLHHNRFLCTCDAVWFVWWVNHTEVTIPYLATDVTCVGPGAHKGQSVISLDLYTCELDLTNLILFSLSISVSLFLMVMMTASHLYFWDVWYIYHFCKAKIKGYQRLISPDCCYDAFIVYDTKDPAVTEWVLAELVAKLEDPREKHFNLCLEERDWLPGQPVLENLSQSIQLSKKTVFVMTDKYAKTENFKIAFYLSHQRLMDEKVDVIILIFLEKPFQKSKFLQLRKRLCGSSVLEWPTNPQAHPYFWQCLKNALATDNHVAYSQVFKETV
# Summary of the method: (§1)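 HEK-Blue cells overexpressing human TLR7, TLR8 or TLR9 carry a SEAP reporter driven by NF-κB/AP-1 sites. Compounds (0.05 nM–50 μM) were preincubated 30 min at room temperature, then cells were stimulated with gardiquimod 7.5 μM (TLR7), R848 15.9 μM (TLR8) or ODN2006 5 nM (TLR9) for 22 h at 37 °C.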
# [2] = molecular target: T2, human TLR9 (Homo sapiens, UniProt Q9NR96); test: TLR9 inhibition reporter assay (HEK-Blue SEAP reporter, ODN2006 stimulation); settings: HEK-Blue cells overexpressing human TLR9, SEAP reporter, ODN2006 5 nM, 22 hour incubation
# T2 construct: host or cells: HEK-Blue cells
# T2 sequence (Q9NR96 26-1032): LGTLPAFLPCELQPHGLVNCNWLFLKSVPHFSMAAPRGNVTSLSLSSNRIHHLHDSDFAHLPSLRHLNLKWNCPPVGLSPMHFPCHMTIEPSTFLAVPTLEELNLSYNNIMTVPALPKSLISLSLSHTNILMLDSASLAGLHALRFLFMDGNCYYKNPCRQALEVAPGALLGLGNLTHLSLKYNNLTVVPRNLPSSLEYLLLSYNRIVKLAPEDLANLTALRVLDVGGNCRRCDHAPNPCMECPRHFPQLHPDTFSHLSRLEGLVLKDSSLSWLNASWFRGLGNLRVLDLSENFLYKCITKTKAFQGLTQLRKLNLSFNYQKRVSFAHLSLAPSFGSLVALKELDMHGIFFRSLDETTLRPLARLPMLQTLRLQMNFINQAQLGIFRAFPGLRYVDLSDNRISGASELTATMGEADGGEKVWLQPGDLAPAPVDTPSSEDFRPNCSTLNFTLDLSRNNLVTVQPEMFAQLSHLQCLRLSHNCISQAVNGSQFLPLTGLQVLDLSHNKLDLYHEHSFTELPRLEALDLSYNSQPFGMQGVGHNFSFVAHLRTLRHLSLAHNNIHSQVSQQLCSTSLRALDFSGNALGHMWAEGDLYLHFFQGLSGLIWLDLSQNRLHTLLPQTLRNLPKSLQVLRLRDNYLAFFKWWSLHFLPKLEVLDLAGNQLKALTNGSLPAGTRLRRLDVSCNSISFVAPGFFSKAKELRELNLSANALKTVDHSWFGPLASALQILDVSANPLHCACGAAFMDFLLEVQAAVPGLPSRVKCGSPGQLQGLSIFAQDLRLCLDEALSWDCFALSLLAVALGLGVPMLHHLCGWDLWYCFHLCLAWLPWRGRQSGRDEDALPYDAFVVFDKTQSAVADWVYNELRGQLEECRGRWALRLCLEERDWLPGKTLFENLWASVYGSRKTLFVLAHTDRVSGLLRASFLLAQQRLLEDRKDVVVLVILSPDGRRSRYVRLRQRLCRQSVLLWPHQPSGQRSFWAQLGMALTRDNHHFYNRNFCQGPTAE
# Summary of the method: as §1
# [3] = molecular target: T3, human TLR8 (Homo sapiens, UniProt Q9NR97); test: TLR8 inhibition reporter assay (HEK-Blue SEAP reporter, R848 stimulation); settings: HEK-Blue cells overexpressing human TLR8, SEAP reporter, R848 15.9 μM, 22 hour incubation
# T3 construct: host or cells: HEK-Blue cells
# T3 sequence (Q9NR97 27-1041): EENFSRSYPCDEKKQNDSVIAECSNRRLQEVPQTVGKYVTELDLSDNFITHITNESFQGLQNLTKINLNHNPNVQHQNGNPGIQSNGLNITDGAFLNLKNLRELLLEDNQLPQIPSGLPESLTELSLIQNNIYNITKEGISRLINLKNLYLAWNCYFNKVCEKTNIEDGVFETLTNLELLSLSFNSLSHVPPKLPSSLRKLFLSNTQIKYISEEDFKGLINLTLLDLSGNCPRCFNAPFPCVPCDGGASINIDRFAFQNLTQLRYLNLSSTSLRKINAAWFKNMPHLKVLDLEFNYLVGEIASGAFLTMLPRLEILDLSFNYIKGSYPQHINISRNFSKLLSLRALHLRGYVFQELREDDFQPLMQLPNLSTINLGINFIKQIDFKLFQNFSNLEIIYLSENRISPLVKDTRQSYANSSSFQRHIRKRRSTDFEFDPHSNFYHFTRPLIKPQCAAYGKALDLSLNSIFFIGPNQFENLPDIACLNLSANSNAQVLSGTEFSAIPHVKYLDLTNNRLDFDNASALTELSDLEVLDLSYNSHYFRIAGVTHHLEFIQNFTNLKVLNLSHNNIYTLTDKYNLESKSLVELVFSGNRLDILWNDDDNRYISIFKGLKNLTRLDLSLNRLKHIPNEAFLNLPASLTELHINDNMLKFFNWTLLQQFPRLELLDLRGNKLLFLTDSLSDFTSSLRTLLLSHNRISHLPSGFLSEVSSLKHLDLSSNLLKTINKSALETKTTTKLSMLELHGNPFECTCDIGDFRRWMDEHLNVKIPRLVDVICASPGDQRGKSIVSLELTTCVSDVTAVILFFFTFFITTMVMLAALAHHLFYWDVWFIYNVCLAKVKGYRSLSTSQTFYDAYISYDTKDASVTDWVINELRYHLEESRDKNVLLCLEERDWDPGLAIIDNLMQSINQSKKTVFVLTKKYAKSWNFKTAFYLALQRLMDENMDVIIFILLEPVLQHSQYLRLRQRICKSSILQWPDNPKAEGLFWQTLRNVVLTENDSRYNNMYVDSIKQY
# Summary of the method: as §1
Structure (SMILES),IC50 [1] [nM],IC50 [2] [nM],IC50 [3] [nM]
"Cc1cc(-c2[nH]c3ccc(C4CCN(C5CCC(C(C)(C)O)CC5)CC4)cc3c2C(C)C)cn(C)c1=O (stereo not drawn) [Example 270, 5-(5-(1-(4-(2-hydroxypropan-2-yl)cyclohexyl)piperidin-4-yl)-3-isopropyl-1H-indol-2-yl)-1,3-dimethylpyridin-2(1H)-one]",2.1,4160,4.7
"Cc1cc(-c2[nH]c3ccc(C4CCN(C5CCC(C(F)(F)F)CC5)CC4)cc3c2C(C)C)cn(C)c1=O (stereo not drawn) [Example 230, 5-(3-isopropyl-5-(1-(4-(trifluoromethyl)cyclohexyl)piperidin-4-yl)-1H-indol-2-yl)-1,3-dimethylpyridin-2(1H)-one]",11.2,5510,23.1
"CCn1cc(-c2[nH]c3ccc(C4CCNCC4)cc3c2C(C)C)cc(C)c1=O [Example 15, 1-ethyl-5-(3-isopropyl-5-(piperidin-4-yl)-1H-indol-2-yl)-3-methylpyridin-2(1H)-one]",1.9,179,3.3
"COc1c(C)c(-c2[nH]c3ccc(C4CCN(CC(C)(C)O)CC4)cc3c2C(C)C)cn(C)c1=O [Example 317, 5-(5-(1-(2-hydroxy-2-methylpropyl)piperidin-4-yl)-3-isopropyl-1H-indol-2-yl)-3-methoxy-1,4-dimethylpyridin-2(1H)-one]",19.3,3580,7.2
"Cc1cc(-c2[nH]c3ccc(C4CCN(C5CCN(C)C5=O)CC4)cc3c2C(C)C)cn(C)c1=O (stereo not drawn) [Example 127, 5-(3-isopropyl-5-(1-(1-methyl-2-oxopyrrolidin-3-yl)piperidin-4-yl)-1H-indol-2-yl)-1,3-dimethylpyridin-2(1H)-one]",3.7,33600,5.2
"CNC(=O)CN1CCC(c2ccc3[nH]c(-c4cc(C)c(=O)n(C)c4)c(C(C)C)c3c2)CC1 [Example 117, 2-(4-(2-(1,5-dimethyl-6-oxo-1,6-dihydropyridin-3-yl)-3-isopropyl-1H-indol-5-yl)piperidin-1-yl)-N-methylacetamide]",2,14000,5.3
"Cc1c(-c2[nH]c3ccc(C4CCN(C5COC5)CC4)cc3c2C(C)C)cn(C)c(=O)c1Cl [Example 248, 3-chloro-5-(3-isopropyl-5-(1-(oxetan-3-yl)piperidin-4-yl)-1H-indol-2-yl)-1,4-dimethylpyridin-2(1H)-one]",5.6,30000,16.9
"Cc1cc(-c2[nH]c3ccc(C4CCN(C)CC4)cc3c2C(C)C)cn(CCO)c1=O [Example 264, 1-(2-hydroxyethyl)-5-(3-isopropyl-5-(1-methylpiperidin-4-yl)-1H-indol-2-yl)-3-methylpyridin-2(1H)-one]",13.5,6090,927
"CC(C)c1c(-c2ccc(=O)n(C(C)C)c2)[nH]c2ccc(C3CCNCC3)cc12 [Example 16, 1-isopropyl-5-(3-isopropyl-5-(piperidin-4-yl)-1H-indol-2-yl)pyridin-2(1H)-one]",302,914,173
"CC(C)c1c(-c2cc(-c3cncnc3)c(=O)n(C)c2)[nH]c2ccc(C3CCN(CC(C)(C)O)CC3)cc12 [Example 326, 5-(5-(1-(2-hydroxy-2-methylpropyl)piperidin-4-yl)-3-isopropyl-1H-indol-2-yl)-1-methyl-3-(pyrimidin-5-yl)pyridin-2(1H)-one]",6.1,1660,0.6
"Cc1cc(-c2[nH]c3ccc(C4CCNCC4)cc3c2C(C)C)cn(-c2ccccc2)c1=O [Example 44, 5-(3-isopropyl-5-(piperidin-4-yl)-1H-indol-2-yl)-3-methyl-1-phenylpyridin-2(1H)-one]",3.8,2080,19.4
"COCc1cc(-c2[nH]c3ccc(C4CCN(CC(=O)N(C)C)CC4)cc3c2C(C)C)cn(C)c1=O [Example 351, 2-(4-(3-isopropyl-2-(5-(methoxymethyl)-1-methyl-6-oxo-1,6-dihydropyridin-3-yl)-1H-indol-5-yl)piperidin-1-yl)-N,N-dimethylacetamide]",78.5,11900,135
"COCc1cc(-c2[nH]c3ccc(C4CCN(C5CCOCC5)CC4)cc3c2C(C)C)cn(C)c1=O [Example 345, 5-(3-isopropyl-5-(1-(tetrahydro-2H-pyran-4-yl)piperidin-4-yl)-1H-indol-2-yl)-3-(methoxymethyl)-1-methylpyridin-2(1H)-one]",11.1,7050,16.9
"COc1ncccc1-c1cc(-c2[nH]c3ccc(C4CCNCC4)cc3c2C(C)C)cn(C)c1=O [Example 57, 5-(3-isopropyl-5-(piperidin-4-yl)-1H-indol-2-yl)-2′-methoxy-1-methyl[3,3′-bipyridin]-2(1H)-one]",68.4,1360,81.9
